In ChEMBL document CHEMBL4715697, “Synthesis and biological activity of benzamide DNA minor groove binders” (2016) one finds ΔTm, C50 and growth data, which are given here for two compounds.

Test [1] has as its system Poly(dA-dT)oligonucleotide. Briefly: Binding affinity to minor groove of poly(dA:dT) dsDNA (unknown origin) assessed as change in melting temperature by UV-vis spectrophotometry based DNA melting assay. The class given is nucleic-acid assay.
Test [2] has as its system Poly(dA-dT)oligonucleotide. Briefly: Displacement of ethidium bromide from minor groove of poly(dA:dT) dsDNA (unknown origin) by fluorescence spectrophotometry. The format is nucleic-acid assay.
Test [3] has as its system HL-60(TB). Nature of the test: Growth inhibition of human HL-60(TB) cells assessed as cell growth at 10 uM incubated for 48 hrs by sulforhodamine B assay relative to control. The class given is functional. Conditions: read-out: Activity. On the technique in general: Sulforhodamine B stains cellular protein and so reports cell mass.
Test [4] concerns A549. Briefly: Growth inhibition of human A549/ATCC cells assessed as cell growth at 10 uM incubated for 48 hrs by sulforhodamine B assay relative to control. The format is functional. Conditions: read-out: Activity.
The subject of test [5] is NCI-H322M. Briefly: Growth inhibition of human NCI-H322M cells assessed as cell growth at 10 uM incubated for 48 hrs by sulforhodamine B assay relative to control. Conditions: read-out: Activity. The class given is functional.
The test system of test [6] is NCI-H460. Nature of the test: Growth inhibition of human NCI-H460 cells assessed as cell growth at 10 uM incubated for 48 hrs by sulforhodamine B assay relative to control. The class given is functional. Conditions: read-out: Activity.
For test [7], the system named is NCI-H522. Briefly: Growth inhibition of human NCI-H522 cells assessed as cell growth at 10 uM incubated for 48 hrs by sulforhodamine B assay relative to control. The format is functional. Conditions: read-out: Activity.
The test system of test [8] is HCC 2998. Nature of the test: Growth inhibition of human HCC 2998 cells assessed as cell growth at 10 uM incubated for 48 hrs by sulforhodamine B assay relative to control. The format is functional. Conditions: read-out: Activity.
Test [9] relates to SF-539. Briefly: Growth inhibition of human SF-539 cells assessed as cell growth at 10 uM incubated for 48 hrs by sulforhodamine B assay relative to control. The format is functional. Conditions: read-out: Activity.
The subject of test [10] is SNB-75. Briefly: Growth inhibition of human SNB-75 cells assessed as cell growth at 10 uM incubated for 48 hrs by sulforhodamine B assay relative to control. The class given is functional. Conditions: read-out: Activity.
Test [11] relates to OVCAR-4. Briefly: Growth inhibition of human OVCAR-4 cells assessed as cell growth at 10 uM incubated for 48 hrs by sulforhodamine B assay relative to control. The class given is functional. Conditions: read-out: Activity.
Test [12] deals with NCI/ADR-RES. Nature of the test: Growth inhibition of human NCI/ADR-RES cells assessed as cell growth at 10 uM incubated for 48 hrs by sulforhodamine B assay relative to control. The format is functional. Conditions: read-out: Activity.
In test [13] the test system is CAKI-1. Briefly: Growth inhibition of human CAKI-1 cells assessed as cell growth at 10 uM incubated for 48 hrs by sulforhodamine B assay relative to control. The class given is functional. Conditions: read-out: Activity.
The test system of test [14] is SN12C. Briefly: Growth inhibition of human SN12C cells assessed as cell growth at 10 uM incubated for 48 hrs by sulforhodamine B assay relative to control. The format is functional. Conditions: read-out: Activity.
Test [15] relates to TK-10. Nature of the test: Growth inhibition of human TK-10 cells assessed as cell growth at 10 uM incubated for 48 hrs by sulforhodamine B assay relative to control. The class given is functional. Conditions: read-out: Activity.
The subject of test [16] is MCF7. Nature of the test: Growth inhibition of human MCF7 cells assessed as cell growth at 10 uM incubated for 48 hrs by sulforhodamine B assay relative to control. The format is functional. Conditions: read-out: Activity.
Test [17] deals with BT-549. Nature of the test: Growth inhibition of human BT-549 cells assessed as cell growth at 10 uM incubated for 48 hrs by sulforhodamine B assay relative to control. The class given is functional. Conditions: read-out: Activity.
Test [18] deals with T47D. Briefly: Growth inhibition of human T47D cells assessed as cell growth at 10 uM incubated for 48 hrs by sulforhodamine B assay relative to control. The format is functional. Conditions: read-out: Activity.
The test system of test [19] is SF-295. Briefly: Growth inhibition of human SF-295 cells assessed as cell growth at 10 uM incubated for 48 hrs by sulforhodamine B assay relative to control. The format is functional. Conditions: read-out: Activity.
The test system of test [20] is Hs-578T. Briefly: Growth inhibition of human Hs-578T cells assessed as cell growth at 10 uM incubated for 48 hrs by sulforhodamine B assay relative to control. The format is functional. Conditions: read-out: Activity.

The ΔTm is the shift of the melting midpoint relative to a reference. In the case of `CC(=O)Nc1cc(CO)cc(NC(=O)c2ccc(C(=O)Nc3cccc(NC(=O)CCCN(C)C)c3)cc2)c1`, in [1], the ΔTm came to 30.7 °C. Also, the C50 in test [2] turned out to be 118 µM. In addition, the growth at 10 µM in test [3] is 91.2%; in test [4], 108%; in test [5], 98.5%; in [6] it was 90.3%; in test [7] it was 79.5%; in test [8], 97.7%. Moreover, the growth at 10 µM in test [9] worked out at 88%; in [10] it was 62.2%; in [11], 34.8%; in test [12] it was 107%; in test [13], 101%; in test [14], 103%. Moreover, the growth at 10 µM stood at 117% in [15], 25.2% in test [16], 108% in test [17] and 82.4% in test [18].

Turning to `CC(=O)Nc1cc(CCl)cc(NC(=O)c2ccc(C(=O)NCCCN(C)C)cc2)c1`, the ΔTm in test [1] came to 21.6 °C. In test [2], this compound returned a C50 of 506 µM. The growth at 10 µM in test [3] was determined as 104%; in [4], 98.5%; in test [5], 116%; in [6], 104%; in [7] it was 98.7%; in test [8] it was 90%. Besides, the growth at 10 µM in test [19] was found to be 97.6%; in [9], 92.8%; in test [10], 86%; in test [12] it was 109%; in test [13] it was 102%; in test [14], 128%. In addition, the growth at 10 µM in test [15] came to 107%; in test [16], 81.5%; in [20], 111%; in test [17] it was 105%; in test [18], 97.6%.
